Results from US8993574B2, “Pyrrole antifungal agents” (F2G Ltd, priority 2008, dated 2015).
Converted amounts (≈) assume the structure as drawn.

How the values were obtained:
Assay type in all cases: cell-based
[1] = system: Aspergillus niger; experiment: MIC, RPMI medium; details: Aspergillus niger, MIC banded into grades, read-out: MIC grade, A. niger
In short: (§1)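 Broth microdilution in RPMI with 2% glucose, 0.135 M MOPS pH 7.0; compounds as doubling dilutions, 50-0.05 mg/L, inoculum 1−2×10^4 cfu/mL. Incubated 24-48 h at 35° C; growth by OD 485 nm. MIC is lowest concentration giving >80% growth inhibition versus drug-free control.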

[2] = system: Aspergillus fumigatus AF210; experiment: MIC, RPMI medium; details: Aspergillus fumigatus, AF210, MIC banded into grades, read-out: MIC grade, A. fumigatus 210
In short: as §1

[3] = system: Aspergillus flavus; experiment: MIC, RPMI medium; details: Aspergillus flavus, MIC banded into grades, read-out: MIC grade, A. flavus
In short: as §1

[4] = system: Aspergillus terreus AT49; experiment: MIC, RPMI medium; details: Aspergillus terreus, AT49, MIC banded into grades, read-out: MIC grade, A. terreus 49
In short: as §1

[5] = system: Aspergillus fumigatus AF293; experiment: MIC, RPMI medium; details: Aspergillus fumigatus, AF293, MIC banded into grades, read-out: MIC grade, A. fumigatus
In short: as §1

[6] = system: Aspergillus terreus AT4; experiment: MIC, RPMI medium; details: Aspergillus terreus, AT4, MIC banded into grades, read-out: MIC grade, A. terreus
In short: as §1

[7] = system: Aspergillus niger; experiment: MIC, YAG medium; details: Aspergillus niger, 24 h at 35° C, MIC banded into grades, read-out: MIC grade, A. niger
In short: (§2)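 OD 485 nm read-out after 24 h at 35° C; MIC = lowest concentration inhibiting growth >70% vs drug-free control, in mg/L. Inoculum 1−2×10^4 cfu/mL in YAG medium; drug range 50-0.05 mg/L, retested at 0.5-0.0005 mg/L when needed.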

[8] = system: Aspergillus fumigatus AF210; experiment: MIC, YAG medium; details: Aspergillus fumigatus, 24 h at 35° C, MIC banded into grades, read-out: MIC grade, A. fumigatus 210
In short: as §2

[9] = system: Aspergillus flavus; experiment: MIC, YAG medium; details: Aspergillus flavus, 24 h, 24 h at 35° C, MIC banded into grades, read-out: MIC grade, A. flavus
In short: as §2

[10] = system: Aspergillus terreus AT49; experiment: MIC, YAG medium; details: Aspergillus terreus, 24 h at 35° C, MIC banded into grades, read-out: MIC grade, A. terreus 49
In short: as §2

[11] = system: Aspergillus fumigatus AF293; experiment: MIC, YAG medium; details: Aspergillus fumigatus, 24 h at 35° C, MIC banded into grades, read-out: MIC grade, A. fumigatus
In short: as §2

[12] = system: Aspergillus terreus AT4; experiment: MIC, YAG medium; details: Aspergillus terreus, 24 h at 35° C, MIC banded into grades, read-out: MIC grade, A. terreus
In short: as §2

CCn1c(C)cc(-c2ccccc2)c1C(=O)C(=O)Nc1ccc(N2CCN(c3cc(C)cc(C)n3)CC2)cc1 [Example 34, N-{4-[4-(4,6-Dimethyl-pyridin-2-yl)-piperazin-1-yl]-phenyl}-2-(1-ethyl-5-methyl-3-phenyl-1H-pyrrol-2-yl)-2-oxo-acetamide]
MIC [1]: < 1 µg/mL
MIC [2]: < 1 µg/mL
MIC [3]: < 1 µg/mL
MIC [4]: < 1 µg/mL
MIC [5]: < 1 µg/mL
MIC [6]: < 1 µg/mL
MIC [7]: < 1 µg/mL
MIC [8]: < 1 µg/mL
MIC [9]: < 1 µg/mL
MIC [10]: < 1 µg/mL
MIC [11]: < 1 µg/mL
MIC [12]: < 1 µg/mL

CCCn1c(C)cc(-c2ccccc2)c1C(=O)C(=O)Nc1ccc(N2CCN(c3cc(C)cc(C)n3)CC2)cc1 [Example 35, N-{4-[4-(4,6-Dimethyl-pyridin-2-yl)-piperazin-1-yl]-phenyl}-2-(5-methyl-3-phenyl-1-propyl-1H-pyrrol-2-yl)-2-oxo-acetamide]
MIC [1]: < 1 µg/mL
MIC [2]: < 1 µg/mL
MIC [3]: < 1 µg/mL
MIC [4]: < 1 µg/mL
MIC [5]: < 1 µg/mL
MIC [6]: < 1 µg/mL
MIC [7]: < 1 µg/mL
MIC [8]: < 1 µg/mL
MIC [9]: < 1 µg/mL
MIC [10]: < 1 µg/mL
MIC [11]: < 1 µg/mL
MIC [12]: < 1 µg/mL

CCCCn1c(C)cc(-c2ccccc2)c1C(=O)C(=O)Nc1ccc(N2CCN(c3cc(C)cc(C)n3)CC2)cc1 [Example 36, 2-(1-Butyl-5-methyl-3-phenyl-1H-pyrrol-2-yl)-N-{4-[4-(4,6-dimethyl-pyridin-2-yl)-piperazin-1-yl]-phenyl}-2-oxo-acetamide]
MIC [1]: < 1 µg/mL
MIC [2]: < 1 µg/mL
MIC [3]: < 1 µg/mL
MIC [4]: < 1 µg/mL
MIC [5]: < 1 µg/mL
MIC [6]: < 1 µg/mL
MIC [7]: < 1 µg/mL
MIC [8]: < 1 µg/mL
MIC [9]: < 1 µg/mL
MIC [10]: < 1 µg/mL
MIC [11]: < 1 µg/mL
MIC [12]: < 1 µg/mL

Cc1cc(-c2ccccc2)c(C(=O)C(=O)Nc2cnc3ccccc3c2)n1C [Example 37, 2-(1,5-Dimethyl-3-phenyl-1H-pyrrol-2-yl)-2-oxo-N-quinolin-3-yl-acetamide]
MIC [1]: 1 to 10 µg/mL (≈ 2.71 to 27.1 µM)
MIC [2]: 1 to 10 µg/mL (≈ 2.71 to 27.1 µM)
MIC [3]: < 1 µg/mL
MIC [4]: < 1 µg/mL
MIC [5]: 1 to 10 µg/mL (≈ 2.71 to 27.1 µM)
MIC [6]: < 1 µg/mL
MIC [7]: < 1 µg/mL
MIC [8]: < 1 µg/mL
MIC [9]: < 1 µg/mL
MIC [10]: < 1 µg/mL
MIC [11]: < 1 µg/mL
MIC [12]: < 1 µg/mL

Cc1cc(-c2ccccc2)c(C(=O)C(=O)Nc2ccc(N3CCN(c4ccccn4)CC3)cc2)n1C [Example 38, 2-(1,5-Dimethyl-3-phenyl-1H-pyrrol-2-yl)-2-oxo-N-[4-(4-pyridin-2-yl-piperazin-1-yl)-phenyl]-acetamide]
MIC [1]: < 1 µg/mL
MIC [2]: < 1 µg/mL
MIC [3]: < 1 µg/mL
MIC [4]: < 1 µg/mL
MIC [5]: < 1 µg/mL
MIC [6]: < 1 µg/mL
MIC [7]: < 1 µg/mL
MIC [8]: < 1 µg/mL
MIC [9]: < 1 µg/mL
MIC [10]: < 1 µg/mL
MIC [11]: < 1 µg/mL
MIC [12]: < 1 µg/mL

Cc1cccc(N2CCN(c3ccc(NC(=O)C(=O)c4c(-c5ccccc5)cc(C)n4C)cc3)CC2)n1 [Example 39, 2-(1,5-Dimethyl-3-phenyl-1H-pyrrol-2-yl)-N-{4-[4-(6-methyl-pyridin-2-yl)-piperazin-1-yl]-phenyl}-2-oxo-acetamide]
MIC [1]: < 1 µg/mL
MIC [2]: < 1 µg/mL
MIC [3]: < 1 µg/mL
MIC [4]: < 1 µg/mL
MIC [5]: < 1 µg/mL
MIC [6]: < 1 µg/mL
MIC [7]: < 1 µg/mL
MIC [8]: < 1 µg/mL
MIC [9]: < 1 µg/mL
MIC [10]: < 1 µg/mL
MIC [11]: < 1 µg/mL
MIC [12]: < 1 µg/mL

Cc1ccnc(N2CCN(c3ccc(NC(=O)C(=O)c4c(-c5ccccc5)cc(C)n4C)cc3)CC2)c1 [Example 40, 2-(1,5-Dimethyl-3-phenyl-1H-pyrrol-2-yl)-N-{4-[4-(4-methyl-pyridin-2-yl)-piperazin-1-yl]-phenyl}-2-oxo-acetamide]
MIC [1]: < 1 µg/mL
MIC [2]: < 1 µg/mL
MIC [3]: < 1 µg/mL
MIC [4]: < 1 µg/mL
MIC [5]: < 1 µg/mL
MIC [6]: < 1 µg/mL
MIC [7]: < 1 µg/mL
MIC [8]: < 1 µg/mL
MIC [9]: < 1 µg/mL
MIC [10]: < 1 µg/mL
MIC [11]: < 1 µg/mL
MIC [12]: < 1 µg/mL
